The values below are quoted from earlier work in patent US8088597B2, “Blood pressure lowering peptides from glycomacropeptide” (DSM IP Assets B.V., priority 2005, dated 2012).

One data set deals with ACE (Homo sapiens, UniProt P12821). The settings on record: reported in the literature.
The test system of data set [1] is spontaneously hypertensive rats. The settings on record: tripeptides derived from lactic acid bacteria fermented bovine milk; Nakamura et al. 1995.

Sequence of ACE (P12821 30-1306, species assumed): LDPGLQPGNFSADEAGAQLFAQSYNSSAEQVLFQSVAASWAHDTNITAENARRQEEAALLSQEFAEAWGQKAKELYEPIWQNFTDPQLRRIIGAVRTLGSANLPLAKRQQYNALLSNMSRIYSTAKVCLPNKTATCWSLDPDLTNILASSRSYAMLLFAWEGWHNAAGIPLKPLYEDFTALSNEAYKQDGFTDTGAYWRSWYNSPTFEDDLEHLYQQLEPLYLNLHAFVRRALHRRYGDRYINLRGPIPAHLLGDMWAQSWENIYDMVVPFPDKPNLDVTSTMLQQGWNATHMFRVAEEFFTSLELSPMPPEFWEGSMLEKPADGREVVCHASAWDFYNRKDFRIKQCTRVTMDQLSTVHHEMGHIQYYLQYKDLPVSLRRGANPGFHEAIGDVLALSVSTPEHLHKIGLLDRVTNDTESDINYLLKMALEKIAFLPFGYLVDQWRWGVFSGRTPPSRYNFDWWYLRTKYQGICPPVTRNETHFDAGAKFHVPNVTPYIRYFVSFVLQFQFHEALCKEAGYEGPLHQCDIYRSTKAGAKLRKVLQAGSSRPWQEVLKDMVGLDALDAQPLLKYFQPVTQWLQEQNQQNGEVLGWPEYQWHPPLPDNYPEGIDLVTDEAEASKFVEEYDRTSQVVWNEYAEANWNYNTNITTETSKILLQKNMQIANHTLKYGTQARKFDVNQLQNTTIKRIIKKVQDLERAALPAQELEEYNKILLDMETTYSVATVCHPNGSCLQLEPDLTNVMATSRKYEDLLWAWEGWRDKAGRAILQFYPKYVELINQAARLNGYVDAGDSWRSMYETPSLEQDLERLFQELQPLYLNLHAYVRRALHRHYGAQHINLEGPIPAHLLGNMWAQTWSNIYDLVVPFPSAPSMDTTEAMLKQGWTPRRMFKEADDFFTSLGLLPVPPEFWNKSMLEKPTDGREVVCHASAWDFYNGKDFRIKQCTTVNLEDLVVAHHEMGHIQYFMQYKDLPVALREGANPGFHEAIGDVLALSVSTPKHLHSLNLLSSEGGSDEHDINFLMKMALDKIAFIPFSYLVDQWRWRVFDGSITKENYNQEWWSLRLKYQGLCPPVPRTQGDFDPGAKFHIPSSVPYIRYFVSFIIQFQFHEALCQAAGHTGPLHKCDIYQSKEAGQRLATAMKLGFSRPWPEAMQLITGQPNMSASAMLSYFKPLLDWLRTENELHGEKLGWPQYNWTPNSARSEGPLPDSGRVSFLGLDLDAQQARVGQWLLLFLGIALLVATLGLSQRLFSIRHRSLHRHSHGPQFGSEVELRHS

As for Ile-Pro-Pro, the ACE inhibiting activity entry on ACE was “Strong ACE inhibiting activities”. In addition, in data set [1], the antihypertensive effects result is listed as “confirmed”.

Leu-Pro-Pro: the ACE inhibiting activity result on ACE is on record as “Strong ACE inhibiting activities”. Consider Val-Pro-Pro, for which the ACE inhibiting activity result on ACE is “Strong ACE inhibiting activities”. The antihypertensive effects result in data set [1] is “confirmed”.
